Here are results for 11 molecules from US8936930B2, “Red microalgae expressing exogenous polypeptides and methods of generating and utilizing same” (priority 2004, dated 2015).

The experiment deals with Porphyridium sp. Description: Antibiotic sensitivities of Porphyridium sp. (growth in ASW supplemented with antibiotic). The format is cell-based, Porphyridium sp. (UTEX 637). Further details: key to Growth: ++: no inhibition of growth rate; +: slight inhibition of growth rate; −: no growth. The conditions noted are these: for Growth: Porphyridium sp. in ASW. As for the experimental part: Porphyridium sp. (UTEX 637, from the culture collection of algae at the University of Texas at Austin) cells were cultured in artificial seawater (ASW; Jones et al. Plant Physiol. 16:636-643, 1963) supplemented with different antibiotic compounds for evaluating antibiotic sensitivities.

As to `O=C(N[C@H](CO)[C@H](O)c1ccc([N+](=O)[O-])cc1)C(Cl)Cl` [Chloramphenicol], the Growth entry reads like this: (200 μg/ml) “+”; (500 μg/ml) “−”. `C[C@@H]1C[C@@H]([C@H](O)CC2CC(=O)NC(=O)C2)C(=O)[C@@H](C)C1` [Cyclohexhimide]: where the note is “5 μM”, the Growth result is reported as “−”. `CN[C@@H]1[C@@H](O)[C@@H](O[C@@H]2[C@@H](O)[C@H](O[C@H]3O[C@H]([C@@H](C)O)[C@@H](O)[C@H](O)[C@H]3N)[C@@H](N)C[C@H]2N)OC[C@]1(C)O` [G418]: the Growth result (2 μg/ml) was “+”.

As for `NC[C@H]1O[C@H](O[C@H]2[C@H](O)[C@@H](O[C@H]3O[C@H](CO)[C@@H](O)[C@H](N)[C@H]3O)[C@H](N)C[C@@H]2N)[C@H](O)[C@@H](O)[C@@H]1O` [Kanamycin], the Growth entry (700 μg/ml) was “++”. Take `CCC[C@@H]1C[C@@H](C(=O)N[C@@H]([C@H]2O[C@H](SC)[C@H](O)[C@@H](O)[C@H]2O)[C@@H](C)O)N(C)C1` [Lincomycin]: the Growth entry (300 μg/ml) is “++”. Consider `CN(Cc1cnc2nc(N)nc(N)c2n1)c1ccc(C(=O)N[C@@H](CCC(=O)O)C(=O)O)cc1` [Methotrexate], for which the Growth result (80 μg/ml) was “++”. For `NC[C@@H]1O[C@H](O[C@H]2[C@@H](O)[C@H](O[C@@H]3[C@@H](O)[C@H](N)C[C@H](N)[C@H]3O[C@H]3O[C@H](CO)[C@@H](O)[C@H](O)[C@H]3N)O[C@@H]2CO)[C@H](N)[C@@H](O)[C@@H]1O` [Paramomycin], where the note is “200 μg/ml”, the Growth entry is “++”. With `CN[C@@H]1[C@H](O)[C@H](NC)[C@H]2O[C@@]3(O)C(=O)C[C@@H](C)O[C@H]3O[C@@H]2[C@H]1O` [Spectinomycin], the Growth entry (300 μg/ml) was “++”. On to `Cc1c(N)nc([C@H](CC(N)=O)NC[C@H](N)C(N)=O)nc1C(=O)N[C@H](C(=O)N[C@H](C)[C@@H](O)[C@H](C)C(=O)N[C@H](C(=O)NCCC1=N[C@@H](c2nc(C(=O)NCCCCN=C(N)N)cs2)CS1)[C@@H](C)O)[C@@H](O[C@@H]1O[C@@H](CO)[C@@H](O)[C@H](O)[C@@H]1O[C@H]1O[C@H](CO)[C@@H](O)[C@H](OC(N)=O)[C@@H]1O)c1cnc[nH]1` [Zeocin], for which the “Growth of untransformed (wild-type) Porphyridium sp. (in words)” value (zeocin 4 μg/ml, 17 days incubation in ASW medium) was “no growth”. The “Growth of wild type Porphyridium sp. (in words)” value (zeocin 10 μg/ml) was “no growth”. Also, the “Growth of Porphyridium sp. (in words)” value (zeocin 4-8 μg/ml) is recorded as “no growth”.

Consider Neomycin, for which the Growth result (150 μg/ml) is “++”. Consider Phleomycin, for which the Growth entry (10 μg/ml) is given as “++”.
